Assays:
Format in all cases: functional
[1] = Cytotoxicity against human colon carcinoma cells; conditions: Colon carcinoma cell, read-out: ED50 (the source's name)
[2] = Cytotoxicity against human nasopharyngeal carcinoma cells; conditions: Nasopharyngeal carcinoma cell, read-out: ED50 (the source's name)
[3] = Cytotoxicity against human ovarian carcinoma cells; conditions: Ovarian carcinoma cell, read-out: ED50 (the source's name)
[4] = Cytotoxicity against human squamous cervical carcinoma cells; conditions: read-out: ED50 (the source's name)

Measured: EC50

CCCCCCCCCCCC(=O)O[C@H]1[C@H](O[C@@H]2[C@H]3OC(=O)CCCCCCCCC[C@H](CCCCC)O[C@@H]4O[C@H](C)[C@H](O)[C@H](O)[C@H]4O[C@H](O[C@H]2C)[C@@H]3O)O[C@@H](C)[C@H](O[C@@H]2O[C@@H](C)[C@H](OC(=O)C(C)C)[C@@H](O)[C@H]2O)[C@H]1O[C@@H]1O[C@@H](C)[C@H](O)[C@@H](O)[C@H]1O [PESCAPREIN II]
5 mg/L: all assays above

CCCCCCCCCCCC(=O)O[C@H]1[C@H](O[C@@H]2[C@H]3OC(=O)CCCCCCCCC[C@H](CCCCC)O[C@@H]4O[C@H](C)[C@H](O)[C@H](O)[C@H]4O[C@H](O[C@H]2C)[C@@H]3O)O[C@@H](C)[C@H](O[C@@H]2O[C@@H](C)[C@H](OC(=O)CCCCC)[C@@H](O)[C@H]2O)[C@H]1O[C@@H]1O[C@@H](C)[C@H](O)[C@@H](O)[C@H]1O [PESCAPREIN IV]
5 mg/L: all assays above

CCCCCCCCCCCC(=O)O[C@H]1[C@H](O[C@@H]2[C@@H](O)[C@@H](O)[C@H](O[C@H]3[C@H](O[C@@H](CCCCC)CCCCCCCCCC(=O)OC)O[C@H](C)[C@H](O)[C@@H]3O)O[C@H]2C)O[C@@H](C)[C@H](O[C@@H]2O[C@@H](C)[C@H](O)[C@@H](O)[C@H]2O)[C@H]1O[C@@H]1O[C@@H](C)[C@H](O)[C@@H](O)[C@H]1O [PESCAPROSIDE A]
5 mg/L: all assays above

CCCCCCCCCCCC(=O)O[C@H]1[C@H](O[C@@H]2[C@H]3OC(=O)CCCCCCCCC[C@H](CCCCC)O[C@@H]4O[C@H](C)[C@H](O)[C@H](O)[C@H]4O[C@H](O[C@H]2C)[C@@H]3O)O[C@@H](C)[C@H](O[C@@H]2O[C@@H](C)[C@H](OC(=O)[C@@H](C)CC)[C@@H](O)[C@H]2O)[C@H]1O[C@@H]1O[C@@H](C)[C@H](O)[C@@H](O)[C@H]1O [PESCAPREIN III]
5 mg/L: all assays above

CCCCCCCCCC(=O)O[C@H]1[C@H](O[C@@H]2[C@H]3OC(=O)CCCCCCCCC[C@H](CCCCC)O[C@@H]4O[C@H](C)[C@H](O)[C@H](O)[C@H]4O[C@H](O[C@H]2C)[C@@H]3O)O[C@@H](C)[C@H](O[C@@H]2O[C@@H](C)[C@H](OC(=O)[C@@H](C)CC)[C@@H](O)[C@H]2O)[C@H]1O[C@@H]1O[C@@H](C)[C@H](O)[C@@H](O)[C@H]1O [STOLONIFERIN III]
5 mg/L: all assays above

CCCCCCCCCCCC(=O)O[C@H]1[C@H](O[C@@H]2[C@H]3OC(=O)CCCCCCCCC[C@H](CCCCC)O[C@@H]4O[C@H](C)[C@H](O)[C@H](O)[C@H]4O[C@H](O[C@H]2C)[C@@H]3O)O[C@@H](C)[C@H](O[C@@H]2O[C@@H](C)[C@H](O)[C@@H](O)[C@H]2O)[C@H]1O[C@@H]1O[C@@H](C)[C@H](O)[C@@H](O)[C@H]1O [PESCAPREIN I]
5 mg/L: all assays above

From ChEMBL document CHEMBL1158690, “Characterization of lipophilic pentasaccharides from beach morning glory (Ipomoea pes-caprae)” (2005)
